Read-outs that look alike come from different tables or passages of the source.
Legend:
[1] = Serum and cerebrospinal fluid bromide concentrations in the sheep trial; format: in vivo; settings: intoxicated sheep
Procedure: (§1) Venous blood samples collected for biochemical analysis and haematocrit (PCV), and urine for USG, at three specific time points during the experiment for all animals: 1) on entry to the trial; 2) on date of entry to the end of trial protocol and, 3) on day of necropsy.
(§2) A full clinical examination was performed prior to euthanasia. At euthanasia, 100 I.U. heparin (Provet Riverina Pty Ltd) was injected into the jugular vein, followed shortly by Lethabarb (20 mL/40 kg LW). Immediately after euthanasia, the ventral articulation of C1 was exposed and cerebrospinal fluid (CSF) collected using a 23 g needle. The head was then removed and subjected to perfusion fixation. Briefly, the carotid arteries were exposed and a small catheter inserted and ligated to secure the perfusion lines. Two liters of 0.1% phosphate buffered saline (PBS) containing 3000 I.U of heparin/L was then slowly perfused via the ligated vessels at a pressure of 90 mm Hg using a Microgon peristaltic Pump (Microgon, Laguna Hills, Calif.). Once complete this was replaced with 4% paraformaldehyde (Sigma-Alrich) in 0.1% PBS and a further two liters allowed to perfuse slowly through the tissues of the head. Once complete, catheters were removed and the whole head placed at 4° C. overnight to complete fixation. Twenty-four hours post perfusion fixation the brain was removed from the skull and placed in 10% formal saline for storage until dissection for processing to wax sections.
Absorbance was measured with a spectrophotometer at 440 nm. […] The lower limit of quantification (LOQ) was 25 μg/mL.

[2] = test system: lolitrem B intoxication; experiment: KBr pre-treatment in rodent model of PRGT (lolitrem B injection), tremor analysis and novel arena test; format: in vivo, mice
Procedure: Mice were administered 2500 ppm KBr in their drinking water for 7 days prior to injection with lolitrem B (2 mg/kg IP).

[3] = test system: cerebellum; format: in vivo; settings: sheep cerebellum
Procedure: as §2
Concurrent to fixation perfusion of the head, a routine ovine necropsy was performed and all general tissues taken for routine histopathology. These were heart, lung, oesophagus and trachea, liver, spleen, gut (rumen, abomasum, ileocaecal junction, ileum, caecum and colon), skeletal muscle (gluteal, tricep and diaphram), kidney, pancreas, thymus, ileal and cranial lymph nodes as well as tissues from any gross abnormalities observed at time post necropsy. Other samples: subcutaneous fat, renal fat, gluteal muscle, kidney, faeces and rumen contents were collected and stored at −80° C. for future toxicological analysis. Samples for routine histopathology were fixed in 10% formal saline for a minimum of 48 hours before processing to wax using an automated wax embedder (Shandon Excelsior ES Tissue Processor, Thermo Fisher Scientific).
For histopathology, sections of brain and spinal cord included the following regions: mid cerebellar peduncle; mid and lateral sections of cerebellum; obex, occipital cortex; rostral colliculi; basal ganglia; frontal cortex; temporal cortex; thalamus; hippocampus; internal capsule; cervical, thoracic and lumbar spinal cord and pituitary. Other tissues examined for routine histopathology were kidney; lung; ileum; heart; liver including, gall bladder and bile duct; diaphragm; rumen; and colon. All sections were cut at 5 μm and stained with Haematoxylin and Eosin (H&E) using an automated staining system (Shandon Varistain Gemini ES Slide Stainer, Thermo Fisher Scientific).

[4] = PK studies performed prior to this trial (Combs and Edwards, personal communication); cited from earlier work
[5] = test system: sheep; experiment: Clinical pathology of serum and urine; format: in vivo; settings: toxin only and acute treatment groups, not outside normal ranges
Description: as §1, with “necropsy. Additional venous blood samples were occasionally collected for analysis of serum bromide (see below).” for “necropsy.”
For venous sampling, blood was collected from either the right or left jugular vein as determined by convenience and sampler preference. Needle hubs and sterile, single use 21 G needles and 10 mL Vacutainer® tubes were used for collection. Two Vacutainer® tube types were used for each animal: one containing a clot activator for serum collection, the other contained ethylenediamine tetra-acetic acid (EDTA) to prevent clotting. Tubes were inverted repetitively immediately after collection prior to storage on ice for transport to the laboratory. […]
Urine samples were collected by attachment of a clean plastic bag using SuperGlue™ to the fleece on either side of the preputial opening. […] Urine specific gravity (USG) was determined using a refractometer (VQ5600 refractometer, VetQuip, Australia).
Haematological and biochemical analysis was performed by the laboratory within 60 minutes of blood collection. Haematological analytes were measured using a CellDyn 3700 Haematology System (Abbott Diagnostics, Abbott Park, Ill., USA). […]

[6] = test system: mice; experiment: Lolitrem B intoxication in mice, tremor and movement analysis; format: in vivo; settings: lolitrem B 2 mg/kg IP
Procedure: FIG. 1. Tremor analysis of animals treated with a single dose of lolitrem B toxin. Tremor analysis: FFT frequency analysis from a mouse prior to (A) and 6 hours post lolitrem B injection 2 mg/kg i.p. (B). Low frequency (0-7 Hz) power output represents primarily movement. […] (D) Tremor-Motion power ratio at one hour post lolitrem B injection (n=4) and vehicle only control (n=4) (*p<0.05, lolitrem B (2 mg/kg i.p.) vs vehicle).
Lolitrem B was tested in mice to establish this as a suitable model for perennial ryegrass toxicosis and lolitrem B intoxication in grazing animals. […] These signs are consistent with clinical signs seen in grazing animals (See FIG. 1).

[7] = 2500 ppm KBr in drinking water 7 days prior to lolitrem B 2 mg/kg IP, one hour post injection
[8] = 2500 ppm KBr in drinking water 7 days, 3.5 hours post lolitrem B 2 mg/kg IP
[9] = Group 3: toxin plus acute treatment
[10] = Group 4: toxin plus prophylactic treatment
[11] = Group 5: prophylactic treatment only

For `[Br-].[K+]` [potassium bromide], the “mean serum bromide concentration” value ([1]; 6 hours after oral 300 mg/kg potassium bromide, n=3) was 899.43 µg/mL, the “final mean serum bromide concentration” value ([1]; 48 hours after oral 300 mg/kg potassium bromide, n=6) was 804.34 µg/mL and the peak tremor frequency [2, 7] was “reduced”. The “tremor to movement ratio” value [2, 7] was “reduced”, the “movement in novel arena test” value [2, 8] was “increased” and the “time freezing in novel arena test” value [2, 8] was “reduce”. For the same compound, the “Incidence of Purkinje neuron vacuolation” value [3, 9] was 2/9, the “Incidence of pyknotic cell bodies in granular layer” value (shortened to “Incidence of pyknotic cell bodies”) [3, 9] was 5/9 and the “Incidence of spheroids, granular layer” value [3, 9] was 7/9. For the same compound, the “Incidence of spheroids, molecular layer” value [3, 9] was 0/9, the “Incidence of Purkinje neuron vacuolation” value [3, 10] was 1/9 and the “Incidence of pyknotic cell bodies” value [3, 10] was 9/9. The “Incidence of spheroids, granular layer” value [3, 10] was 6/9, the “Incidence of spheroids, molecular layer” value [3, 10] was 3/9 and the “Incidence of Purkinje neuron vacuolation” value [3, 11] was 0/9. For the same compound, the “Incidence of pyknotic cell bodies” value [3, 11] was 2/9, the “Incidence of spheroids, granular layer” value [3, 11] was 1/9 and the “Incidence of spheroids, molecular layer” value [3, 11] was 3/9. For the same compound, the “time of peak serum bromide levels post administration” value [4] was 6 h.

With `CC(C)=C[C@H]1O[C@H]2[C@H]3O[C@@]34[C@H](CC[C@@]3(C)[C@@]4(O)CC[C@H]4Cc5c([nH]c6ccc7c(c56)C[C@@H]5[C@@H](C7=O)C(C)(C)OC5(C)C)[C@@]43C)O[C@@H]2C(C)(C)O1` [lolitrem B] the “Incidence of Purkinje neuron vacuolation” value ([3]; Group 2: toxin only) was 5/9, the “Incidence of pyknotic cell bodies” value ([3]; Group 2: toxin only) was 9/9 and the “Incidence of spheroids, granular layer” value ([3]; Group 2: toxin only) was 7/9. For the same compound, the “Incidence of spheroids, molecular layer” value ([3]; Group 2: toxin only) was 1/9, the “Renal function (creatinine, urea)” value [5] was “mildly compromised” and the “distinctive tremor spike, frequency range” value [6] was 10-19 Hz. The movement [6] was “decrease in movement”.
